These results are taken from article PMC9775191, “A Subset Screen of the Compounds Australia Scaffold Library Identifies 7-Acylaminodibenzoxazepinones as Potent and Selective Hits for Anti-Giardia Drug Discovery” (Biomedicines, 2022).

For test [1], the system named is G. duodenalis BRIS/91/HEPU/1279. Put plainly: Primary Giardia screen at 10 µM (live-cell imaging, automated counting). The format is cell-based, Giardia duodenalis. Particulars: Giardia duodenalis. In short, it runs like this:
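Compounds were tested once each at 10 μM final (0.2% DMSO) in culture medium under 3% O2, 5% CO2 in N2. Growth was read at 24 and 48 h by live-cell imaging with automated counting, and inhibition expressed as percent growth versus 0.2% DMSO vehicle after media-only background subtraction.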

For test [2] the test system is unchanged. Put plainly: Giardia dose response assay, assemblage B. Type of test: cell-based, Giardia duodenalis. Particulars: Giardia duodenalis, ±SD, max 10 µM. The protocol:
In these assays, compounds were serially diluted (8–12-point doubling dilutions in technical duplicate) in DMSO control media, with all test wells inoculated with parasites (1.5 × 10^4 parasites for BRIS/91/HEPU/1279 and BRIS/91/HEPU/1279m1, or 3 × 10^3 parasites for BRIS/87/HEPU/713). […] All plates were sealed in culture chambers and gassed with 3% O2, 5% CO2 in N2 and incubated at 37 °C for 48 h, with parasites imaged and enumerated at 24 and 48 h. Growth inhibition was calculated as a percentage relative to vehicle controls minus any background as described above and IC50 values were determined using log-linear interpolation as previously described. […] Statistical comparison of IC50 values when required were performed using Student’s t-test.

Test [3] concerns Neonatal foreskin fibroblast (NFF) cells. Put plainly: Mammalian cell cytotoxicity assay (sulforhodamine B). Type of test: cell-based, human. The note with it: for inhibition at 20 µM: Homo sapiens, NFF, ±SD; for SI (48h Gd): Table S2, NFF vs 48 h Giardia IC50. As for the experimental part: The selectivity of compounds of interest was assessed against NFF cells. Assays were performed using sulforhodamine B and included media only, negative (no compound, no DMSO), and vehicle (DMSO) controls as previously described. A chloroquine control plate was included in each assay. […] Repurchased SN00797640 was tested in dose–response from 100 µM against NFF. Selectivity indices (SI) were calculated by dividing mammalian cell IC50 values by G. duodenalis BRIS/91/HEPU/1279 IC50 values.

The subject of test [4] is Acinetobacter baumannii (ATCC 19606). Briefly: Anti-bacterial activity assay. Particulars: ATCC19606, 50 µM. Type of test: cell-based. As for the experimental part: (§1) The activity of compounds against methicillin resistant Staphylococcus aureus (ATCC 43300), Escherichia coli (ATCC 25922), Acinetobacter baumannii (ATCC 19606) and Klebsiella pneumoniae (ATCC 700603) was assessed at 50 µM in duplicate as previously described. In brief, mid-log phase bacteria cultures were added to 384-well microtiter plate wells containing compound to final cell density of 5 × 10^5 CFU/mL in 50 µL. Plates were then covered and incubated at 37 °C for 18 h without shaking. Inhibition of bacterial growth was determined by measuring absorbance at 600 nm (Tecan M1000 Pro monochromator plate reader) and calculating percentage growth inhibition relative to the negative media and bacteria without inhibitors. Vancomycin hydrochloride (Sigma-Aldrich an affiliate of Merck KGaA, Darmstadt, Germany, #861987) and colistin sulfate (Sigma-Aldrich an affiliate of Merck KGaA, Darmstadt, Germany, C4461) were on each plate as positive controls for Gram-positive (S. aureus) and Gram-negative (E. coli, A. baumannii and K. pneumoniae) bacteria, respectively.

The test system of test [5] is Escherichia coli (ATCC 25922). Put plainly: Anti-bacterial activity assay. The format is cell-based. Particulars: Escherichia coli, ATCC25922, 50 µM; read-out: Bacterial Inhibition E. coli. As for the experimental part: as §1
For test [6], the system named is Klebsiella pneumoniae (ATCC 700603). Briefly: Anti-bacterial activity assay. The format is cell-based. The note with it: ATCC700603, 50 µM, read-out: Bacterial Inhibition K. pneumoniae. As for the experimental part:
as §1

Test [7] relates to methicillin resistant Staphylococcus aureus (ATCC 43300). Briefly: Anti-bacterial activity assay. The format is cell-based. The note with it: Staphylococcus aureus, ATCC43300, 50 µM; read-out: Bacterial Inhibition S. aureus. As for the experimental part: as §1
Setting [8] is: 24 h, first singlicate assay, read-out: % Inhibition n=1 24h.
The mark [9] stands for this setting: 24 h, re-assessment, read-out: % Inhibition n=2 24h.
[10] abbreviates: 24 h, read-out: Average % Inhibition 24h.
[11] abbreviates: 48 h, first singlicate assay, read-out: % Inhibition n=1 48h.
[12] abbreviates: 48 h, re-assessment, read-out: % Inhibition n=2 48h.
[13] abbreviates: 48 h, read-out: Average % Inhibition 48h.
Setting [14] is: 24 h, read-out: G. duodenalis IC50 24h, Table S2, 24 h.
The mark [15] stands for this setting: 48 h, Table S2, 48 h, read-out: G. duodenalis IC50 48h.

Where two headings read alike, the source gives them in different places.

On to `O=S1(=O)CCC(n2cc(-c3cnn(-c4ccccc4)c3)cn2)C1` (stereo not drawn) [SN00776738, O=S1(=O)CCC(C1)n1ncc(c1)c1cnn(c1)c1ccccc1], for which the inhibition at 10 µM in test [1] (setting [8]) came out at 46.8%; in test [1] (setting [9]), 44.3%; in test [1] (setting [10]), 45.5%; in test [1] (setting [11]) it was 52.3%; in test [1] (setting [12]), 80.1%; in test [1] (setting [13]) it was 66.2%. For the same compound, the IC50 in test [2] (setting [14]) and in test [2] (setting [15]) was more than 10 µM throughout. In test [3], the inhibition at 20 µM turned out to be 16 ± 0.6%. In addition, the inhibition at 50 µM is -4.28% in test [4], 5.37% in test [5], 6.87% in test [6] and -13.4% in test [7].
Turning to `CN(C)CCn1cc(C(=O)c2cc(Cl)ccc2O)cc1-c1nc2ccccc2c(=O)[nH]1` [SN00778038, CN(C)CCn1cc(cc1c1nc2ccccc2c(=O)[nH]1)C(=O)c1cc(Cl)ccc1O], the inhibition at 10 µM in test [1] (setting [8]) turned out to be 45.3%; in test [1] (setting [9]), 44.7%; in test [1] (setting [10]), 45%; in test [1] (setting [11]), 85.2%; in test [1] (setting [12]), 86.5%; in test [1] (setting [13]), 85.8%. The IC50 is more than 10 µM in test [2] (setting [14]) and 6.39 ± 2.8 µM in test [2] (setting [15]). The inhibition at 20 µM in test [3] was determined as 8.4 ± 4.7%. Also, the “SI (48h Gd)” value in test [3] is recorded as more than 5. Moreover, the inhibition at 50 µM in test [4] was -8.73%; in test [5] it was -2.44%; in test [6], -1.96%; in test [7], -9.58%.
In the case of `Cc1ncc([N+](=O)[O-])n1Cc1csc(Cc2ccccc2)n1` [SN00780011, O=N(=O)c1cnc(C)n1Cc1csc(Cc2ccccc2)n1], the inhibition at 10 µM worked out at 33.3% in test [1] (setting [8]); 27% in test [1] (setting [9]); 30.1% in test [1] (setting [10]); 54.9% in test [1] (setting [11]); 79.2% in test [1] (setting [12]); 67.1% in test [1] (setting [13]). Also, the IC50 was more than 10 µM in test [2] (setting [14]) and 5.48 µM in test [2] (setting [15]). Further, the inhibition at 20 µM in test [3] stood at 9.2 ± 12.4%. In test [3], the “SI (48h Gd)” value was more than 3. Also, the inhibition at 50 µM in test [4] amounted to 10.5%; in test [5], 8.95%; in test [6] it was 16.4%; in test [7] it was 11.7%.
For `O=[N+]([O-])c1cc(F)ccc1Sc1nnc(N2CCOCC2)s1` [SN00781107, Fc1ccc(Sc2nnc(s2)N2CCOCC2)c(c1)N(=O)=O], the inhibition at 10 µM is 34% in test [1] (setting [8]); 27.7% in test [1] (setting [9]); 30.8% in test [1] (setting [10]); 64.2% in test [1] (setting [11]); 57.4% in test [1] (setting [12]); 60.8% in test [1] (setting [13]). The IC50 in test [2] (setting [14]) was 6.87 ± 1.88 µM; in test [2] (setting [15]), 1.86 ± 2.52 µM. For the same compound, in test [3], the inhibition at 20 µM was -19.8 ± 44.9%. The inhibition at 50 µM in test [4] was 3.43%; in test [5] it was 2.28%; in test [6] it was 10.6%; in test [7], 4.13%.
For `COc1c(C)cnc(Cn2cnc([N+](=O)[O-])c2)c1C` [SN00782023, COc1c(C)cnc(Cn2cnc(c2)N(=O)=O)c1C], the inhibition at 10 µM in test [1] (setting [8]) was determined as 40.2%; in test [1] (setting [9]), 11.3%; in test [1] (setting [10]), 25.8%; in test [1] (setting [11]), 83.4%; in test [1] (setting [12]), 82.5%; in test [1] (setting [13]), 82.9%. The IC50 was found to be 6.8 µM in test [2] (setting [14]) and 6.51 µM in test [2] (setting [15]). For the same compound, in test [3], the inhibition at 20 µM was -6.3 ± 3.6%. Also, the “SI (48h Gd)” value in test [3] is recorded as more than 3. Further, the inhibition at 50 µM came out at 9.49% in test [4], 5.99% in test [5], 8.15% in test [6] and 10% in test [7].
Take `Cc1nn(-c2ccccc2)c2sc(C(=O)N3CCCCC3)cc12` [SN00783575, O=C(N1CCCCC1)c1cc2c(C)nn(c3ccccc3)c2s1]: the inhibition at 10 µM is 34% in test [1] (setting [8]); 8.3% in test [1] (setting [9]); 21.1% in test [1] (setting [10]); 63.8% in test [1] (setting [11]); 15.4% in test [1] (setting [12]); 39.6% in test [1] (setting [13]). Also, the IC50 in test [2] (setting [14]) and in test [2] (setting [15]) was more than 10 µM in each case. The inhibition at 20 µM in test [3] is 26.9 ± 2.5%. For the same compound, the inhibition at 50 µM was 15.1% in test [4], -4.12% in test [5], 16.3% in test [6] and 6.02% in test [7].
Take `CC(=O)Nc1ccc([N+](=O)[O-])c2nonc12` [SN00783960, CC(=O)Nc1ccc(N(=O)=O)c2nonc12]: the inhibition at 10 µM was found to be 53.9% in test [1] (setting [8]); 36.2% in test [1] (setting [9]); 45.1% in test [1] (setting [10]); 66.5% in test [1] (setting [11]); 60.2% in test [1] (setting [12]); 63.3% in test [1] (setting [13]). Also, the figures for the IC50 in test [2] (setting [14]) and in test [2] (setting [15]) were 3.1 ± 2.29 µM and 3.27 ± 4.08 µM, respectively. For the same compound, in test [3], the inhibition at 20 µM is 98.5 ± 3.8%. The “SI (48h Gd)” value in test [3] is given as less than 6. In addition, the inhibition at 50 µM is 6.26% in test [4], 12% in test [5], 19.9% in test [6] and 95.3% in test [7].
In the case of `COc1cccc(Nc2c3c(nc4ccccc24)CCC3)c1` [SN00784168, COc1cccc(c1)Nc1c2CCCc2nc2ccccc12], the inhibition at 10 µM in test [1] (setting [8]) was 27.7%; in test [1] (setting [9]), 16.4%; in test [1] (setting [10]) it was 22%; in test [1] (setting [11]), 63.3%; in test [1] (setting [12]) it was 61.4%; in test [1] (setting [13]) it was 62.4%. The IC50 was more than 10 µM in test [2] (setting [14]) and 4.58 ± 4.9 µM in test [2] (setting [15]). The inhibition at 20 µM in test [3] stood at 75.1 ± 0.3%. For the same compound, the “SI (48h Gd)” value in test [3] was less than 4. The inhibition at 50 µM in test [4] was -2.44%; in test [5], 3.98%; in test [6], -3.07%; in test [7], -10.7%.
As to `Cc1ccc(-n2c(=O)c3c(cnn3C)n(CC(=O)Nc3ccccc3C)c2=O)cc1` [SN00784346, Cc1ccc(cc1)n1c(=O)n(CC(=O)Nc2ccccc2C)c2cnn(C)c2c1=O], the inhibition at 10 µM in test [1] (setting [8]) was 52%; in test [1] (setting [9]), 55.8%; in test [1] (setting [10]), 53.9%; in test [1] (setting [11]), 77.6%; in test [1] (setting [12]), 76.3%; in test [1] (setting [13]), 76.9%. Further, the figures for the half-inhibitory concentration (IC50) in test [2] (setting [14]) and in test [2] (setting [15]) were more than 10 µM and 7.66 µM, respectively. The inhibition at 20 µM in test [3] is -1.1 ± 0.8%. Further, the “SI (48h Gd)” value in test [3] is more than 2. The inhibition at 50 µM in test [4] was 0.24%; in test [5], 3.09%; in test [6] it was -2.01%; in test [7] it was 5.68%.

The inhibition is the change of the read-out against control, counted positive when it falls. What is called IC50 is the point on the concentration scale where inhibition reaches its midpoint.
